Experimental findings from EP4559919A1, “TRICYCLIC-CONTAINING MACROCYCLIC COMPOUND AND USE THEREOF” (Medshine Discovery Inc., priority 2022, dated 2024) are described below.

Test [1] has as its target T1, CYP2D6 (Homo sapiens, UniProt P10635).
T1 construct: Mixed human liver microsomes (HLM) purchased from Corning Inc; tissue Corning Inc; host or cells: pooled human liver microsomes
The test can be described thus: Cytochrome P450 isozyme inhibitory activity test (human liver microsomes). The class given is in vitro ADME. As to conditions: human liver microsomes 0.1 mg/mL. (Liver microsomes are vesicles of endoplasmic reticulum, rich in cytochrome P450 enzymes.)

The target in test [2] is T2, CYP2C19 (Homo sapiens, UniProt P33261).
T2 construct: Mixed human liver microsomes (HLM) purchased from Corning Inc; tissue Corning Inc; host or cells: pooled human liver microsomes
The description is as above. Format: in vitro ADME. As to conditions: human liver microsomes 0.1 mg/mL.

Test [3] concerns the target T3, CYP1A2 (Homo sapiens, UniProt P05177).
T3 construct: Mixed human liver microsomes (HLM) purchased from Corning Inc; tissue Corning Inc; host or cells: pooled human liver microsomes
T3 sequence (P05177 1-516): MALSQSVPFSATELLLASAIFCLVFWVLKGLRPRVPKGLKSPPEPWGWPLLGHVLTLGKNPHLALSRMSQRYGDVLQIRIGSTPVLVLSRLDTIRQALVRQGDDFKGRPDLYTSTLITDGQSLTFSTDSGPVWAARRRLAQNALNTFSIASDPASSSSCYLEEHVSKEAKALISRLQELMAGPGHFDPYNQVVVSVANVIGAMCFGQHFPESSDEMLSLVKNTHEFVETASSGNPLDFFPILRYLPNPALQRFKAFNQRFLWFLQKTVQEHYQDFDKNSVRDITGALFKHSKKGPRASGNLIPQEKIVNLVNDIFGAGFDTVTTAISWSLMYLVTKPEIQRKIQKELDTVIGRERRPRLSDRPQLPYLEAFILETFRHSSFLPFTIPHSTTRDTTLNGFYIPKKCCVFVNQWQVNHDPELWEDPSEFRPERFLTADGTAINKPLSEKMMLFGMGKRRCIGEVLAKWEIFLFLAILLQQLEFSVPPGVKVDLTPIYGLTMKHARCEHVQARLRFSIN
Described as above. Format: in vitro ADME. As to conditions: human liver microsomes 0.1 mg/mL.

In test [4] the target is T4, TRKB (Homo sapiens, UniProt Q16620).
T4 construct: purchased Carna
The test can be described thus: In vitro kinase inhibitory activity assay, Experimental method 2 (ADP-Glo). The note with it: Experimental method 2; ATP 5.0 µM, substrate PolyE4Y1; read-out: Kinase half maximal inhibitory concentration IC50 TRKB. Format: biochemical. (In general: ADP-Glo turns the ADP formed in a reaction into a luminescent signal.)

Test [5] addresses T5, CYP2C9 (Homo sapiens, UniProt P11712).
T5 construct: Mixed human liver microsomes (HLM) purchased from Corning Inc; tissue Corning Inc; host or cells: pooled human liver microsomes
The test can be described thus: Cytochrome P450 isozyme inhibitory activity test (human liver microsomes). The class given is in vitro ADME. As to conditions: human liver microsomes 0.1 mg/mL; probe substrate Diclofenac. As for the experimental part: To test the inhibitory activity of the compounds of the present disclosure on different subtypes of human liver microsomal cytochrome P450 isozymes.
Mixed human liver microsomes (HLM) purchased from Corning Inc. (Steuben, New York, USA); Diclofenac as the probe substrate (10 µM); Sulfaphenazole as the positive control inhibitor; 4'-Hydroxydiclofenac as the metabolite
Preparation of test system working solution: Human liver microsomes (HLM): HLM stock solution at 20.0 mg/mL, working solution at 0.2 mg/mL, final concentration at 0.1 mg/mL; Potassium phosphate buffer: 100 mM; Cofactor working solution: Magnesium chloride, NADP (nicotinamide adenine dinucleotide phosphate), G6P (glucose-6-phosphate), G6PDH (glucose-6-phosphate dehydrogenase), and phosphate buffer or magnesium chloride, NADPH (reduced nicotinamide adenine dinucleotide phosphate) powder, and potassium phosphate buffer; prepared into cofactor working solution at appropriate ratios;
Stop solution: Isotope-labeled 4'-hydroxydiclofenac-d4 stock solution prepared in methanol, then prepared into stop solution using acetonitrile.
In the substrate-free control sample wells of the reaction plate, 100 µL of a mixture of human liver microsome and potassium phosphate buffer was added. At the zero-time point sample wells, 98 µL of a mixture of the human liver microsome and potassium phosphate buffer was added. In the no-inhibitor control (NIC), test compound, and positive control inhibitor sample wells of the reaction plate, 100 µL of a mixture of the human liver microsome and substrate was added. From the dilution plate, 2 µL of blank solvent, test compound working solution (three parallels), and positive control inhibitor working solution (two parallels) were added to the reaction plate. The reaction plate was preheated at 37.0°C for 10 minutes. […] The concentration of specific metabolites in the samples was detected using the liquid chromatography-tandem mass spectrometry (LC-MS/MS) method. […] The IC50 values were calculated using a three-parameter or four-parameter inverse log equation.

The target in test [6] is T6, CYP3A4-M (Homo sapiens, UniProt P08684).
T6 construct: Mixed human liver microsomes (HLM) purchased from Corning Inc; tissue Corning Inc; host or cells: pooled human liver microsomes
The description is as above. As to conditions: human liver microsomes 0.1 mg/mL. Format: in vitro ADME.

Structures are written as SMILES.

T5 sequence (P11712 whole entry): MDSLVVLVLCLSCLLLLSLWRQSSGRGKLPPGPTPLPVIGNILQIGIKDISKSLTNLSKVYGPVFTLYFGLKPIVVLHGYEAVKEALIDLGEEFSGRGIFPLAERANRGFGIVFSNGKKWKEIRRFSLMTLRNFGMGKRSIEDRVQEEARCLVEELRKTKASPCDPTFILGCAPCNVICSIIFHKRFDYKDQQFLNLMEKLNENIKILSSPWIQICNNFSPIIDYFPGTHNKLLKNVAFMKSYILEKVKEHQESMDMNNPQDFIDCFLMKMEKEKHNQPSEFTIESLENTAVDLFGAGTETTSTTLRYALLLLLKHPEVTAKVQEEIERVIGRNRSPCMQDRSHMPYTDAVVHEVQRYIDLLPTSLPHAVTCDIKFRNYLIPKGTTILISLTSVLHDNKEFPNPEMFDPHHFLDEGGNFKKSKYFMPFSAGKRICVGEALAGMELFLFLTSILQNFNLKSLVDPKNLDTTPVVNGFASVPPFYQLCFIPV
T1 sequence (P10635 whole entry): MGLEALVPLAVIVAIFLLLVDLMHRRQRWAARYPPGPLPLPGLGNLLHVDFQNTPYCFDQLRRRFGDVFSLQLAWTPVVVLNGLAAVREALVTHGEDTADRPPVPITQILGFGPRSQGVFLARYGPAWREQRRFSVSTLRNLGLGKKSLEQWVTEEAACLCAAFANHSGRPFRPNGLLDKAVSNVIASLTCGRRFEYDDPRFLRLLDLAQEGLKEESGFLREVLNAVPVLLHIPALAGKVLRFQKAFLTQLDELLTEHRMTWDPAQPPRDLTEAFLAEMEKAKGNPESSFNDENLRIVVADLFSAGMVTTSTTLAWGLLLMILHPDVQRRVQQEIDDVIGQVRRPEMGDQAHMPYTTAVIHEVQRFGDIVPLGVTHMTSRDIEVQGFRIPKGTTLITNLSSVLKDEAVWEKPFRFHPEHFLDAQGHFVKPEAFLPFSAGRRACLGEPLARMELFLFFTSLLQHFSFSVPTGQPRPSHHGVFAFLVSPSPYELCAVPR
T6 sequence (P08684 whole entry): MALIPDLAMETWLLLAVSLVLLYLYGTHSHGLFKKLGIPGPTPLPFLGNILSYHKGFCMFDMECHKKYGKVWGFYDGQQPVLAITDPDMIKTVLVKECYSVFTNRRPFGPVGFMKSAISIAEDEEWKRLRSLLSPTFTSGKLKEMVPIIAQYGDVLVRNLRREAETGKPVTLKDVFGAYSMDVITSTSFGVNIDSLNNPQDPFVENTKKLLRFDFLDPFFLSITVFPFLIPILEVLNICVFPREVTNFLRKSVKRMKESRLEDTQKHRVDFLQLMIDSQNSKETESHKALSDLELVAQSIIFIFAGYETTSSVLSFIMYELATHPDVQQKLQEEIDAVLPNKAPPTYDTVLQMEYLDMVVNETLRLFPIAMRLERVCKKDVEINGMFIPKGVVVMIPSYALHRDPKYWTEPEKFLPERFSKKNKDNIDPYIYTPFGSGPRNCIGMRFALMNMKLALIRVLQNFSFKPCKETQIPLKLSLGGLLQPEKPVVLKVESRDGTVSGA
T2 sequence (P33261 whole entry): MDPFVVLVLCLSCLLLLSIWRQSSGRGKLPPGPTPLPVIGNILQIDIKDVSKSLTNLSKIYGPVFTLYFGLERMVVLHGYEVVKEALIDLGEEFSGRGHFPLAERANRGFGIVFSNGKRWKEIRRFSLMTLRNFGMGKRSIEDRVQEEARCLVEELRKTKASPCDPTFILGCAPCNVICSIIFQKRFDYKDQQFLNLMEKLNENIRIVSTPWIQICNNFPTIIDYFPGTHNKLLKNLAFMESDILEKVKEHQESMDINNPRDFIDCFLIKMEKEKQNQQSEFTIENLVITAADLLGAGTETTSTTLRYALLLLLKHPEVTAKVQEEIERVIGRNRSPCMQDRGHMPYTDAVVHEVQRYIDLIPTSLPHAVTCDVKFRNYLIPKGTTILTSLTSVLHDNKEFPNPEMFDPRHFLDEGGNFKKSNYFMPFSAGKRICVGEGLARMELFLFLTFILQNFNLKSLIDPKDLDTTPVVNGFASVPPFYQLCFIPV
T4 sequence (Q16620 32-822): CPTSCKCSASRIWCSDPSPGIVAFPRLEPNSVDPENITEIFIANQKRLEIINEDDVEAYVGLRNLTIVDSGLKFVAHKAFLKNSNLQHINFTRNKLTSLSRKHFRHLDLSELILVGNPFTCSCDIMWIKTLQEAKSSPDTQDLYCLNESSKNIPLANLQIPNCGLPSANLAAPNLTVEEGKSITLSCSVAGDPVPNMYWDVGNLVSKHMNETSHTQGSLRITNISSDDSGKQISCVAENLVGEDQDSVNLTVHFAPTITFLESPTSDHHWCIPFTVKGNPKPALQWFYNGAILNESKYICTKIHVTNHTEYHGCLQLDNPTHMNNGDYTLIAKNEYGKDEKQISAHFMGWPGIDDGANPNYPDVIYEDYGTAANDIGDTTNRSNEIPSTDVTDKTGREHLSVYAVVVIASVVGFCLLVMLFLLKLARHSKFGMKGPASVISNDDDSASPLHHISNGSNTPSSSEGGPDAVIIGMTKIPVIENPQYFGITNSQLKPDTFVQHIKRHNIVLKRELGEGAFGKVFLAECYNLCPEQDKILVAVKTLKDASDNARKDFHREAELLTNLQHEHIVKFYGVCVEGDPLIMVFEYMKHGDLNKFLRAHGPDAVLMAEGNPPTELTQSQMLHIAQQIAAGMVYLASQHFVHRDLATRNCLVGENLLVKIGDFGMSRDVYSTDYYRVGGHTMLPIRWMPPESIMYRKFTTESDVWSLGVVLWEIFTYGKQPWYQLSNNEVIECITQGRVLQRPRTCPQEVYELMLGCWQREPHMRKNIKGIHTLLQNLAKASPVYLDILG

Regarding `Cc1nn2cc3c4nc2c1C(=O)NC1(CC1)COc1ccc(F)cc1CN4[C@H](C(F)F)CO3` [Compound 016], the IC50 in test [1] is greater than 50 µM; in test [2], 22.7 µM; in test [3], greater than 50 µM; in test [4], 0.0003 µM; in test [5] it was 3.12 µM; in test [6], greater than 50 µM.
